Assay in all cases: SelectScreen Z-LYTE kinase activity assay (SI Table 6)
What all share (format): biochemical

Assay [1] addresses protein kinases of the Z-LYTE panel (Homo sapiens, UniProt P51451). As for the experimental part:
(§1) 133 protein kinases and 7 lipid kinases were counterscreened, with 1938 used at 1 μM, using the Adapta, Lantha and Z-LYTE assays (SelectScreen Kinase Profiling Service; Thermofisher – experimental details of these assays can be found here: https://www.thermofisher.com/uk/en/home/industrial/pharma-biopharma/drug-discovery-development/target-and-lead-identification-and-validation/kinasebiology/kinase-activity-assays.html. The tree represention in KinMap[59] generated courtesy of Cell Signaling Technology, Inc. (www.cellsignal.com). mTORC1 (mTOR/RAPTOR/LST8) protein complex and ATM kinase and substrates were produced as previously described[57],[60]. Screening of 1938 was conducted using SuperSep Phos-Tag 50 μmol/l 100 x 100 x 6.6 mm 17-well (192-18001/199-18011) gels. For ATM assays, 100 nM ATM was incubated for 30 min at 30°C with 5 μM GST-p53 and 1 mM ATP, in the absence or presence of 200 μM 1938 in ATM Kinase Buffer (50 mM HEPES pH 7.5, 100 mM NaCl, 10% glycerol, 2 mM […], 5 mM MgCl2). As a positive control for ATM activation, the same reaction was carried out with 100 nM ATM/5 μM GST-p53/1 mM ATP in the presence of 100 nM Mre11-Rad50-Nbs1 (MRN) complex, a known activator of ATM[61]. For mTORC1 assays, 50 nM mTORC1 complex (mTOR/LST8/RAPTOR) was incubated for 3 h at 30°C with 15 μM 4E-BP1, 10 mM MgCl2 and 250 μM ATP, in the absence or presence of 200 μM 1938. As a ‘positive’ control, a higher concentration (150 nM) of mTORC1 complex (mTOR/LST8/RAPTOR) was incubated for 3 h at 30°C with 15 μM 4E-BP1, 10 mM MgCl2 and 250 μM ATP. Kinase reactions were quenched by addition of SDS-PAGE Loading Buffer (as per manufacturer’s instructions) and freezing at -20°C before being run on the Phos-tag gels at 150 V for 90 min. Gels were then stained using InstantBlue™ Coomassie, and quantified using BioRad Image Lab Software. Kinase assays were carried out in triplicate.

Assay [2] has as its target protein kinases of the Z-LYTE panel (Homo sapiens, UniProt P07333). As for the experimental part: as §1
The target of assay [3] is protein kinases of the Z-LYTE panel (Homo sapiens, UniProt Q16620). How it is done:
as §1

For assay [4], the target named is protein kinases of the Z-LYTE panel (Homo sapiens, UniProt P09619). How it is done: as §1
The target of assay [5] is protein kinases of the Z-LYTE panel (Homo sapiens, UniProt Q13554). As for the experimental part:
as §1

The target of assay [6] is T1, protein kinases of the Z-LYTE panel (Homo sapiens, UniProt O15530).
T1 sequence (O15530 1-556): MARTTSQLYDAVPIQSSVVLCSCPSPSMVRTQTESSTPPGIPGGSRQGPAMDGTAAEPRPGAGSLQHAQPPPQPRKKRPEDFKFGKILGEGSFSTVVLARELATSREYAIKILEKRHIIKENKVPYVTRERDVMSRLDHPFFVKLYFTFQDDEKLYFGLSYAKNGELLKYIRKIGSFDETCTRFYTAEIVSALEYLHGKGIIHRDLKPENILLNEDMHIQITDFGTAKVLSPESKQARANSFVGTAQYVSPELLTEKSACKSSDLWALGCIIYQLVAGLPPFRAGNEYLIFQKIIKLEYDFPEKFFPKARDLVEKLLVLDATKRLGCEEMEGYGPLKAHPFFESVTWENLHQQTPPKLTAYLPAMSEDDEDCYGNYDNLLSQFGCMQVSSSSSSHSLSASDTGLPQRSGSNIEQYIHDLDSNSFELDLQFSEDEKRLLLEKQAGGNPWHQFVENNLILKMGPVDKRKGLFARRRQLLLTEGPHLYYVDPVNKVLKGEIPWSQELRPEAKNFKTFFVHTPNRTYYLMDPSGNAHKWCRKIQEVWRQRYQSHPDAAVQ
Particulars: PDK1, 1000 nM, [ATP] 100 μM. How it is done: as §1

Assay [7] concerns the target T2, protein kinases of the Z-LYTE panel (Homo sapiens, UniProt Q9NWZ3).
T2 sequence (Q9NWZ3 1-460): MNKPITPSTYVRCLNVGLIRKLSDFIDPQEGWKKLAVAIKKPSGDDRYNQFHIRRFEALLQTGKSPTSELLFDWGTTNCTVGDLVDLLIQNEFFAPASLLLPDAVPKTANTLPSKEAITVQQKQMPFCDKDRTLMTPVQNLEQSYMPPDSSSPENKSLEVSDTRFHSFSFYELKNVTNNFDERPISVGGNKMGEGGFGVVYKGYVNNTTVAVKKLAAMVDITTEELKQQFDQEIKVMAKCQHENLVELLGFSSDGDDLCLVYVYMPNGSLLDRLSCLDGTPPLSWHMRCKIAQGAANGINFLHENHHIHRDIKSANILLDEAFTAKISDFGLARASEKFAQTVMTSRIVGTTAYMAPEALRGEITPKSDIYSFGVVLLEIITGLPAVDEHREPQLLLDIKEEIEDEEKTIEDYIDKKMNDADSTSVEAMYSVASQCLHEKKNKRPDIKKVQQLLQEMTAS
How it is done:
as §1

Usually inhibition stands for the change of the read-out against control, counted positive when it falls.

Read-outs that look alike come from different tables or passages of the source.

protein kinases of the Z-LYTE panel (Homo sapiens, UniProt Q13554), sequence (Q13554 whole entry): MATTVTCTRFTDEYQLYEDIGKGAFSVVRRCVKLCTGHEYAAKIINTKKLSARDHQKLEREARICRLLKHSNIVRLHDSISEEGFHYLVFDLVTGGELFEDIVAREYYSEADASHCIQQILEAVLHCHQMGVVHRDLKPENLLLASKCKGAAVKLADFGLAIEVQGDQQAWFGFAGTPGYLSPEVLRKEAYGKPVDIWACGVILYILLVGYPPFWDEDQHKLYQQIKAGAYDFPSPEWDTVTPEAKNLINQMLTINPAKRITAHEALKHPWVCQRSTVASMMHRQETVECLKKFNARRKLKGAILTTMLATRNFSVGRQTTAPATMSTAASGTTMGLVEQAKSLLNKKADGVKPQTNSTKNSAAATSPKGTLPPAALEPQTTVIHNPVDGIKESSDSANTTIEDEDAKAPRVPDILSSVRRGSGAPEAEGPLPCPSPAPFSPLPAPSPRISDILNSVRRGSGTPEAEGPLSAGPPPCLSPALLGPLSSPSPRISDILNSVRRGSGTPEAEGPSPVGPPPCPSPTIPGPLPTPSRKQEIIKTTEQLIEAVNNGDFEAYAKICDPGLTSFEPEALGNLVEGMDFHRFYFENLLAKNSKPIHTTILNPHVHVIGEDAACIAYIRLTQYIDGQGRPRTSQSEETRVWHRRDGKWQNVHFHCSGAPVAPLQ
protein kinases of the Z-LYTE panel (Homo sapiens, UniProt P09619), sequence (P09619 33-1106): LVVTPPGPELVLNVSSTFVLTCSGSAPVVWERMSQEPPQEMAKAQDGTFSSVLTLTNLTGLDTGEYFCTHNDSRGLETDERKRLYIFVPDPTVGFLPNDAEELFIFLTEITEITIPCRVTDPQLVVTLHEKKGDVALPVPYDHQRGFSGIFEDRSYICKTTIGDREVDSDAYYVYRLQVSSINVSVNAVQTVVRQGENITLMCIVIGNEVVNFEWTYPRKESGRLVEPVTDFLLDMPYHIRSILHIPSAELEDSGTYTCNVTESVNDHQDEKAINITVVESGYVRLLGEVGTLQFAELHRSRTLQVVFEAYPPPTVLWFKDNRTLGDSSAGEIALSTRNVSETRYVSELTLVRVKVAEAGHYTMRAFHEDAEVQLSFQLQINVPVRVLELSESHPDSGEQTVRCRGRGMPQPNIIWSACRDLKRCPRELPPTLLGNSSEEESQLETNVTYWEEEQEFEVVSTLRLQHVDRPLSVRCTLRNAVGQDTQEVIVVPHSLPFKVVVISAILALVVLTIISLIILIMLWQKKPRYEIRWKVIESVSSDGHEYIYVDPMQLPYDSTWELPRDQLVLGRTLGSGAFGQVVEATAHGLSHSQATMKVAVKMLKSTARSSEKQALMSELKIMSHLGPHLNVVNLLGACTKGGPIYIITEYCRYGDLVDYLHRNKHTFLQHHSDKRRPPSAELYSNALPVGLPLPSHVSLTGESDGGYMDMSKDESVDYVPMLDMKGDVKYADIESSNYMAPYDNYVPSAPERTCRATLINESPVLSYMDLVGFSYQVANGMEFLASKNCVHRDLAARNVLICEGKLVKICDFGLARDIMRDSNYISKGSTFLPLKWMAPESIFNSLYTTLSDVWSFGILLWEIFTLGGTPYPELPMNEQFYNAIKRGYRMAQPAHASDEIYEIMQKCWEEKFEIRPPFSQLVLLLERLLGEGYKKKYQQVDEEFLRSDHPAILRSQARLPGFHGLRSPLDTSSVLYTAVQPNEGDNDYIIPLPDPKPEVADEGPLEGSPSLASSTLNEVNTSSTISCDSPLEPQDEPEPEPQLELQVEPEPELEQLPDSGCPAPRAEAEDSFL
protein kinases of the Z-LYTE panel (Homo sapiens, UniProt Q16620), sequence (Q16620 32-822): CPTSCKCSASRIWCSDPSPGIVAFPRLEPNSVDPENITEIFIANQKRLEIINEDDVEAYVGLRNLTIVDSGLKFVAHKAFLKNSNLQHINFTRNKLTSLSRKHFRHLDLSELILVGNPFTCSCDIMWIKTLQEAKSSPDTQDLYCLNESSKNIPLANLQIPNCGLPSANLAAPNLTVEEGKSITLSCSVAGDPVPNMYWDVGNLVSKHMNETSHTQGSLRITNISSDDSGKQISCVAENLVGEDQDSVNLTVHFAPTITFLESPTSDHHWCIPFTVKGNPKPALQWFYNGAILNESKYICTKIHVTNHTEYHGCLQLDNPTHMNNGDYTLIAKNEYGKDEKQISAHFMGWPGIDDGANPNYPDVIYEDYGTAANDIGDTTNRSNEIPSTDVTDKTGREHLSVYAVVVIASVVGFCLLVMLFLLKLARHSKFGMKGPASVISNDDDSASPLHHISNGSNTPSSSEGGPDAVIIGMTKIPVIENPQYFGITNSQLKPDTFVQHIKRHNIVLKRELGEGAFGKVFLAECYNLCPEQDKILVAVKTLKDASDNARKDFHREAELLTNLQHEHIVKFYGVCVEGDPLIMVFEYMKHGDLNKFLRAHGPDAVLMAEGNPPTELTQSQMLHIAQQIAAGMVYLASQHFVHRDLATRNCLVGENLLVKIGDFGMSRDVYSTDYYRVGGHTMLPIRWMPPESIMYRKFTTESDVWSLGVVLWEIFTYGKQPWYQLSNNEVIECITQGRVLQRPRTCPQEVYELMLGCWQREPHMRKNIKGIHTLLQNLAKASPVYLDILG
protein kinases of the Z-LYTE panel (Homo sapiens, UniProt P07333), sequence (P07333 20-972): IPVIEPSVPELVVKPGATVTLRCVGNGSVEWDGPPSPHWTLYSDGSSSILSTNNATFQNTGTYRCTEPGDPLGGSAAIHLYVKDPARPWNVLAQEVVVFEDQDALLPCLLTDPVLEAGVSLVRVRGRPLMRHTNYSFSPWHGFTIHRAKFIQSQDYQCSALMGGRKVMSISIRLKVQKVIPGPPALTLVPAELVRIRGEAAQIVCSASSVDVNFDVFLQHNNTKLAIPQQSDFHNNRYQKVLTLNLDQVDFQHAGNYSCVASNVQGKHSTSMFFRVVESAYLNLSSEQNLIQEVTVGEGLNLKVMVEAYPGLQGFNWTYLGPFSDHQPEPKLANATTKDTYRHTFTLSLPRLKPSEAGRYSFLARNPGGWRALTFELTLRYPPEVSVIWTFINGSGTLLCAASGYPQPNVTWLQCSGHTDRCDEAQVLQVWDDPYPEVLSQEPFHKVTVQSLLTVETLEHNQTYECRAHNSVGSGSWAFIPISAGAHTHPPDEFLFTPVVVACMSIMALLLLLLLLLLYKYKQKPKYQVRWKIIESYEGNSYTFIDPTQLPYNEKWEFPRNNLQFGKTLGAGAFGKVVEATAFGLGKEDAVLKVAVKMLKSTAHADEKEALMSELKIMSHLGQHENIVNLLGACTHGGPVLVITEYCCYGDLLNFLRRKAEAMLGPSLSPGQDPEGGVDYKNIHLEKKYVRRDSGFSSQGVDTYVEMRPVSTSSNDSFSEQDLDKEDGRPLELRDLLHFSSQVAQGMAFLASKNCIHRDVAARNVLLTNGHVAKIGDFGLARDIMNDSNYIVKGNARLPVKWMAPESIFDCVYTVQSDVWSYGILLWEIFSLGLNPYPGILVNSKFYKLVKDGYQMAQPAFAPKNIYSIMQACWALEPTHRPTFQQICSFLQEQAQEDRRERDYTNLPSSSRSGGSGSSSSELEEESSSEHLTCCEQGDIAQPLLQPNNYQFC
protein kinases of the Z-LYTE panel (Homo sapiens, UniProt P51451), sequence (P51451 whole entry): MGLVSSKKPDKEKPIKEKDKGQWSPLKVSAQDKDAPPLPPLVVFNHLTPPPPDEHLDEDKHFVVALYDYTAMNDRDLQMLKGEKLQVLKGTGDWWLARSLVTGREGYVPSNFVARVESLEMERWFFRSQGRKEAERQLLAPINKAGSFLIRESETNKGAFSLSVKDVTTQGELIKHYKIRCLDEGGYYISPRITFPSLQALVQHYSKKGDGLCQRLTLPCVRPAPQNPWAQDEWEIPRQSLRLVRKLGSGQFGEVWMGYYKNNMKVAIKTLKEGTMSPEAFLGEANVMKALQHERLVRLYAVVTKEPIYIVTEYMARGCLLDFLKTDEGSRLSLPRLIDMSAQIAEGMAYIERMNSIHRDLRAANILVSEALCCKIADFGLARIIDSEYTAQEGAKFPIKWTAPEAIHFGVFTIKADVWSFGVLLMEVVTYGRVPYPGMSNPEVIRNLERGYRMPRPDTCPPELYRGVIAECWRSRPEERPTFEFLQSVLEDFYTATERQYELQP

As for `CCN1CCN(c2ccc(Nc3cc(Nc4cccc5c4N(C(C)=O)CC5)ccn3)cc2)CC1` [Compound 1938], the inhibition at 1 µM in assay [1] (read-out: % Inhibition Point 1) is 16%; in assay [1] (read-out: % Inhibition Point 2) it was 6.35%; in assay [1] (read-out: % Inhibition mean), 11%; in assay [2] (read-out: % Inhibition Point 1), 15%; in assay [2] (read-out: % Inhibition Point 2), 15%; in assay [2] (read-out: % Inhibition mean), 15%. Also, the inhibition at 1 µM in assay [3] (read-out: % Inhibition Point 1) was 7.5%; in assay [3] (read-out: % Inhibition Point 2) it was 6%; in assay [3] (read-out: % Inhibition mean), 6.66%; in assay [4] (read-out: % Inhibition Point 1), 7%; in assay [4] (read-out: % Inhibition Point 2), 7%; in assay [4] (read-out: % Inhibition mean), 7%. The inhibition at 1 µM in assay [5] (read-out: % Inhibition Point 1) turned out to be 8%; in assay [5] (read-out: % Inhibition Point 2) it was 6%; in assay [5] (read-out: % Inhibition mean), 7%; in assay [6] (read-out: % Inhibition Point 1), 6%; in assay [6] (read-out: % Inhibition Point 2), 7%; in assay [6] (read-out: % Inhibition mean), 6%. For the same molecule, the inhibition at 1 µM in assay [7] (read-out: % Inhibition Point 1) is -0.0182%; in assay [7] (read-out: % Inhibition Point 2), -2.21%; in assay [7] (read-out: % Inhibition mean), -1.11%.

Values taken from article PMC7614683, “A small molecule PI3Kα activator for cardioprotection and neuroregeneration” (Nature, 2023).
